Assays:
H^+ /K^+ -ATPase = molecular target: T1, H^+ /K^+ -ATPase (Sus scrofa, UniProt P19156); test: Inhibitory Action on H^+ /K^+ -ATPase Activity; type: biochemical; conditions: microsome fraction from porcine gastric mucosa, pH7.4, 37° C., 30 min preincubation, 15 min reaction
T1 construct: a microsome fraction prepared from porcine gastric mucosa was used as a standard enzyme; from tissue; host or cells: porcine gastric mucosa, microsome fraction
Procedure: Inhibitory Action on H^+ /K^+ -ATPase Activity
According to the method of Hongo et al. [The Japanese Journal of Pharmacology, 52, p295, (1990)], a microsome fraction prepared from porcine gastric mucosa was used as a standard enzyme. The standard enzyme (10-20lig protein) and the test compound (0.1-100 μM) dissolved in dimethylsulfoxide was incubated at 37° C. for 30 minutes in the 50 mM Tris-acetate buffer (pH7.4, containing 2 mM magnesium chloride, 5 mM potassium chloride). The enzyme reaction was started by adding adenosinetriphosphate (ATP). Tris at the final concentration of 2 mM, and the reaction was kept at 37° C. for 15 minutes. The reaction was stopped by adding chilled 10% trichloroacetic acid. Inorganic phosphate released during the reaction was calorimetrically determined according to the method of Fiske-Subbarow [The Journal of Biological Chemistry, 66, p375, (1925)]. H^+ /K^+ -ATPase activity was determined by the difference of the enzyme activities under the conditions with or without potassium chloride. The inhibitory activities of test compounds were determined as the 50% inhibitory concentration (IC50 value) from reaction-concentration curve, and the results are shown in Table 3.

gastric acid secretion [1] = test: Inhibition of Gastric Acid Secretion Observed Under Acute Fistula Method; type: in vivo, male Wistar rats; conditions: Rattus norvegicus; 30 mg/kg intraduodenally, rats, histamine 10 mg/kg s.c., cumulative 2 h
Procedure: Inhibition of Gastric Acid Secretion Observed Under Acute Fistula Method
Male Wistar rats (6-8 weeks) fasted for 24 hours (water ad libitum) were used. The rats were anesthetized by intraperitoneal administration of 1.25 g/kg of urethane. The abdomen was incised, and acute gastric fistula was connected to the stomach. Two ml of saline was injected into the stomach, and recovered every 20 minutes. The gastric acid secretion was determined by titrating of gastric juice by 150 mM sodium hydroxide up to pH7.0 using an autotitrator. Test compounds (30 mg/kg) suspended in a 0.5% aqueous sodium carboxymethylcellulose (CMC-Na) solution were administered intraduodenally. After 1 hour, gastric acid secretion was stimulated by subcutaneous administration of histamine dihydrochloride dissolved in saline (10 mg/kg). Inhibition (%) of gastric acid secretion was determined by calculating cumulative amount of the acid secretion during two hours after histamine stimulation and then comparing the cumulative amount with that in the control group. In the control group, only 0.5% aqueous CMC-Na solution was administered intraduodenally.

gastric acid secretion [2] = test: Inhibition of Gastric Acid Secretion Observed Under Stomach Perfusion Method; type: in vivo, male Sprague Dawrey rats; conditions: Rattus norvegicus, ip, 1 h; rats, histamine i.v. 8 mg/kg/hr, inhibition one hour after administration (1-10 mg/kg, "intrapenetorially"); read-out: ID50 (dose showing 50% inhibition of acid secretion)
Procedure: Inhibition of Gastric Acid Secretion Observed Under Stomach Perfusion Method
Male Sprague Dawrey rats (6-7weeks) fasted for 24 hours were used (water ad libitum). The rats were anesthetized by intraperitoneal administration of 1.25 g/kg of urethane. The abdomen was incised, and gastral cavity was perfused with saline during experiment. The perfusate was titrated by 10 mM sodium hydroxide up to pH5.5 using an autotitrator in accordance with Stat-method. Gastric acid secretion was stimulated by intravenous administration of histamine dihydrochloride (8 mg/kg/hr). Two hours after histamine stimulation, a test compound 1-10 mg/kg) was administered intrapenetorially. The test compound was mixed with small amount of polysorbate-80, and the mixture was suspended in saline. The test compound was evaluated using ID50 (dose showing 50% inhibition of acid secretion) which was calculated based on inhibition of the acid secretion observed one hour after administration of the compound.

[3] = parameters: species or system male ICR mice; conditions: mouse, in vivo, po, 10080 min
Procedure: Male ICR mice (6 weeks, 3 mice per group) fasted for 16 hours were used ad libitum). A test compound suspended in 5% aqueous gum arabic solution was orally administered. After administration, mortality of the animals observed during 7 days and approximate lethal dose was determined.

T1 sequence (P19156 2-1034 limits assumed): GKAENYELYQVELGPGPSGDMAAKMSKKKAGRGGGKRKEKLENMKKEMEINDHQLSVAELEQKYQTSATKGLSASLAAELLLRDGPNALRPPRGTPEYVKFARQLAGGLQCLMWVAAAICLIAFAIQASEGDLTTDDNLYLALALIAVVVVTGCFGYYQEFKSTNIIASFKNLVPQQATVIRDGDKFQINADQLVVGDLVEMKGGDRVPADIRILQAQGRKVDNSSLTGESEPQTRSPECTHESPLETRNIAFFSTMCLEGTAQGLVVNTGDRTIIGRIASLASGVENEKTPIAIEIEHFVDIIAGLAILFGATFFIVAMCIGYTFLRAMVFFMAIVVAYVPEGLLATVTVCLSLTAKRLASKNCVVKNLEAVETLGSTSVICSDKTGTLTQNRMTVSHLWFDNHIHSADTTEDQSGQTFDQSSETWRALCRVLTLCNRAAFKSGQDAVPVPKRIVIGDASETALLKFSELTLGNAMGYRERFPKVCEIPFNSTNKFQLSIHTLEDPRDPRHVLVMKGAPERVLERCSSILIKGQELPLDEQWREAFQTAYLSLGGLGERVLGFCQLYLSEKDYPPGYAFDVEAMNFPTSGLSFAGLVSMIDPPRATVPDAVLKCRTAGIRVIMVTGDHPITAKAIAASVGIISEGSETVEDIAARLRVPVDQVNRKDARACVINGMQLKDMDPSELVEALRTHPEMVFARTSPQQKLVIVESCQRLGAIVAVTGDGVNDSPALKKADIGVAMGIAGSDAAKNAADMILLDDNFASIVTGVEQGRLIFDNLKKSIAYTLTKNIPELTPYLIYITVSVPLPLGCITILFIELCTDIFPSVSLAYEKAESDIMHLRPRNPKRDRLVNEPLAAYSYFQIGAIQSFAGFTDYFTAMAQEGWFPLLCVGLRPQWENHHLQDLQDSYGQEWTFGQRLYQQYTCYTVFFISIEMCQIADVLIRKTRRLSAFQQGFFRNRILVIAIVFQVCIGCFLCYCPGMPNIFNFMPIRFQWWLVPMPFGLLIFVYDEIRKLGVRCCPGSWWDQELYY
T1 sequence (P18434 whole entry partner): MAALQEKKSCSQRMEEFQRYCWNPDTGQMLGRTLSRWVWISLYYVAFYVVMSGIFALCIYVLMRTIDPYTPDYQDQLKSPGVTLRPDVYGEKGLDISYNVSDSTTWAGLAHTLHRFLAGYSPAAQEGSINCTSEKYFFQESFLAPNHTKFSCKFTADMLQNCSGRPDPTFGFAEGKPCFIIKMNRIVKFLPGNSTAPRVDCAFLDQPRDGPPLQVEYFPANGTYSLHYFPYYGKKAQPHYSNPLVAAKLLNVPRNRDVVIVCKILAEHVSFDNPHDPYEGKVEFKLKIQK

Compound | IC50 (H^+ /K^+ -ATPase) [µM] | inhibition in vivo at 30 mg/kg (gastric acid secretion [1]) [%] | ED50 (gastric acid secretion [2]) [mg/kg] | Approximate lethal dose [3]
Cc1ccccc1-c1nc2c3cc(OC(=O)C(C)C)ccc3ccn2c1N [Compound 43, 3-Amino-9-isobutyryloxy-2-(2-methylphenyl)imidazo[2,1-a]isoquinoline] | – | – | 7 | –
COc1ccc2cc(C)n3c(N)c(-c4ccccc4C)nc3c2c1 [Compound 56, 3-Amino-9-methoxy-5-methyl-2-(2-methylphenyl)imidazo[2,1-a]isoquinoline] | – | – | 6.5 | –
COc1ccc2ccn3c(N)c(-c4sccc4C)nc3c2c1 [Compound 75, 3-Amino-9-methoxy-2-(3-methyl-2-thienyl)imidazo[2,1-a]isoquinoline] | 6.4 | 73.3 | – | –
Cc1sccc1-c1nc2c3ccccc3ccn2c1N [Compound 78, 3-Amino-2-(2-methyl-3-thienyl)imidazo[2,1-a]isoquinoline] | 17 | – | 1.6 | –
Cc1cc(-c2nc3c4ccccc4ccn3c2N)c(C)o1 [Compound 91, 3-Amino-2-(2,5-dimethyl-3-furyl)imidazo[2,1-a]isoquinoline] | 5.6 | – | – | > 2,000 mg/kg
Cn1cccc1-c1nc2c3ccccc3ccn2c1N [Compound 94, 3-Amino-2-(1-methyl-2-pyrrolyl)imidazo[2,1-a]isoquinoline] | 3 | – | 5.8 | –
COc1ccc2c(c1)-c1nc(-c3ccccc3C)c(N)n1CC2 [Compound 103, 3-Amino-9-methoxy-2-(2-methylphenyl)-5,6-dihydroimidazo[2,1-a]isoquinoline] | – | – | 7.4 | –
CCCN(CC)c1c(-c2ccccc2C)nc2c3ccccc3ccn12 [Compound 207, 3-(N-Ethyl-N-propylamino)-2-(2-methylphenyl)imidazo[2,1-a]isoquinoline] | 9.3 | 67.4 | – | –
CCCN(CC)c1c(-c2sccc2C)nc2c3ccccc3ccn12 [Compound 212, 3-(N-Ethyl-N-propylamino)-2-(3-methyl-2-thienyl)imidazo[2,1-a]isoquinoline] | 1.9 | – | – | > 2,000 mg/kg
Cc1ccccc1-c1nc2c3ccccc3ccn2c1N1CCCCC1 [Compound 217, 2-(2-Methylphenyl)-3-piperidinoimidazo[2,1-a]isoquinoline] | 4.7 | – | – | > 2,000 mg/kg
CCN(Cc1ccc(C)cc1)c1c(-c2ccccc2C)nc2c3ccccc3ccn12 [Compound 219, 3-[N-Ethyl-N-(4-methylbenzyl)amino]-2-(2-methylphenyl)imidazo[2,1-a]isoquinoline] | 3.6 | – | – | –
CCc1ccccc1-c1nc2c3ccccc3ccn2c1N=Cc1ccc(C)cc1 [Compound 226, 2-(2-Ethylphenyl)-3-(4-methylbenzylideneamino)imidazo[2,1-a]isoquinoline] | 1.9 | – | – | –
Cc1cc2sccc2c2nc(-c3ccccc3)c(N)n12 [Compound 230, 3-Amino-5-methyl-2-phenylimidazo[1,2-a]thieno[3,2-c]pyridine] | 20 | – | 6.2 | –
Nc1c(-c2ccccc2Cl)nc2c3ccsc3ccn12 [Compound 232, 3-Amino-2-(2-chlorophenyl)imidazo[1,2-a]thieno[3,2-c]pyridine] | 17 | – | 3.2 | –
Cc1ccccc1-c1nc2c3ccsc3c(C)c(C)n2c1N [Compound 239, 3-Amino-5,6-dimethyl-2-(2-methylphenyl)imidazo[1,2-a]thieno[3,2-c]pyridine] | 26 | – | – | –
COc1ccccc1-c1nc2c3ccsc3cc(C)n2c1N [Compound 245, 3-Amino-2-(2-methoxyphenyl)-5-methylimidazo[1,2-a]thieno[3,2-c]pyridine] | 9 | – | – | –
Cc1cc(Cl)ccc1-c1nc2c3ccsc3cc(C)n2c1N [Compound 248, 3-Amino-2-(4-chloro-2-methylphenyl)-5-methylimidazo[1,2-a]thieno[3,2-c]pyridine] | 4.7 | – | – | –
Cc1sccc1-c1nc2c3ccsc3cc(C)n2c1N [Compound 255, 3-Amino-5-methyl-2-(2-methyl-3-thienyl)imidazo[1,2-a]thieno[3,2-c]pyridine] | 6.6 | – | 1 | –
Cc1cc(-c2nc3c4ccsc4ccn3c2N)c(C)s1 [Compound 264, 3-Amino-2-(2,5-dimethyl-3-thienyl)imidazo[1,2-a]thieno[3,2-c]pyridine] | 1.2 | – | – | –
Cn1cccc1-c1nc2c3ccsc3ccn2c1N [Compound 275] | 24 | – | – | –
Cc1ccccc1-c1nc2c3sccc3ccn2c1N [Compound 310, 3-Amino-2-(2-methylphenyl)imidazo[1,2-a]thieno[2,3-c]pyridine] | 26 | – | 3 | > 2,000 mg/kg
CCNc1c(-c2ccccc2C)nc2c3ccsc3ccn12 [Compound 340, 3-Ethylamino-2-(2-methylphenyl)imidazo[1,2-a]thieno[3,2-c]pyridine] | 33 | – | 4.9 | –
CCCN(CC)c1c(-c2ccccc2C)nc2c3sccc3ccn12 [Compound 356, 3-(N-Ethyl-N-propylamino)-2-(2-methylphenyl)imidazo[1,2-a]thieno[2,3-c]pyridine] | 8.4 | – | – | –

Continued, in another order:

IC50 (H^+ /K^+ -ATPase) [µM] | Compound | inhibition in vivo at 30 mg/kg (gastric acid secretion [1]) [%] | ED50 (gastric acid secretion [2]) [mg/kg] | Approximate lethal dose [3]
8 | Cc1ccccc1-c1nc2c3c(Cl)cccc3ccn2c1N [Compound 7, 3-Amino-10-chloro-2-(2-methylphenyl)imidazo[2,1-a]isoquinoline] | 74.9 | – | –
20 | Cc1ccc2ccn3c(N)c(-c4ccccc4C)nc3c2c1 [Compound 10, 3-Amino-9-methyl-2-(2-methylphenyl)imidazo[2,1-a]isoquinoline] | – | 4.2 | –
12.5 | CCCc1cc2ccccc2c2nc(-c3ccccc3C)c(N)n12 [Compound 12] | – | 7.2 | –
13.5 | COc1cn2c(N)c(-c3ccccc3C)nc2c2ccccc12 [Compound 24, 3-Amino-6-methoxy-2-(2-methylphenyl)imidazo[2,1-a]isoquinoline] | – | 5.4 | –
8.4 | CSc1cccc2c1ccn1c(N)c(-c3ccccc3C)nc21 [Compound 46, 3-Amino-2-(2-methylphenyl)-7-(methylthio)imidazo[2,1-a]isoquinoline] | 73.8 | – | –
17.5 | Cc1ccccc1-c1nc2n(c1N)CCc1ccccc1-2 [Compound 96, 3-Amino-2-(2-methylphenyl)-5,6-dihydroimidazo[2,1-a]isoquinoline] | – | 8.8 | –
7.6 | Cc1ccccc1-c1nc2c3ccsc3ccn2c1N [Compound 234, 3-Amino-2-(2-methylphenyl)imidazo[1,2-a]thieno[3,2-c]pyridine] | – | 1.8 | –
2.9 | CCc1cc2sccc2c2nc(-c3ccccc3C)c(N)n12 [Compound 238, 3-Amino-5-ethyl-2-(2-methylphenyl)imidazo[1,2-a]thieno[3,2-c]pyridine] | – | – | –
4.8 | Cc1ccccc1-c1nc2c3ccn(C)c3ccn2c1N [Compound 291, 3-Amino-7-methyl-2-(2-methylphenyl)imidazo[1,2-a]pyrrolo[3,2-c]pyridine] | – | 6.4 | –
8.8 | Cc1ccccc1-c1nc2c3ccn(Cc4ccccc4)c3ccn2c1N [Compound 292, 3-Amino-7-benzyl-2-(2-methylphenyl)imidazo[1,2-a]pyrrolo[3,2-c]pyridine] | – | – | –
8 | Cc1ccccc1-c1nc2c3sccc3cc(C)n2c1N [Compound 311, 3-Amino-5-methyl-2-(2-methylphenyl)imidazo[1,2-a]thieno[2,3-c]pyridine] | – | – | –
